Source: article doi:10.1101/2021.10.07.463234v2 (biorxiv, 2021)
Where a name gives a salt, the structure may show the parent alone.

Biological target: SARS-CoV-2 Mac1 (Severe acute respiratory syndrome coronavirus 2, UniProt P0DTD1)
Experiment: biochemical
Settings: for inhibition at 100 µM: read-out: %inhibition; for %inhibition: 100 µM, inhibitor

Compound | inhibition at 100 µM [%] | %inhibition [%]
O=C1Nc2ccc(Cl)cc2[C@@](C#CC2CC2)(C(F)(F)F)O1 [Efavirenz] | 0 | –
C=C1CCN([C@H](C)[C@](O)(Cn2cncn2)c2ccc(F)cc2F)CC1 [Efinaconazole] | 2.14 | –
NCCCC(N)(C(=O)O)C(F)F (stereo not drawn) [Eflornithine hydrochloride hydrate] | 0 | –
CC1=C(C(=O)OCCN(Cc2ccccc2)c2ccccc2)C(c2cccc([N+](=O)[O-])c2)C(P2(=O)OCC(C)(C)CO2)=C(C)N1 (stereo not drawn) [Efonidipine] | 14.5 | –
COc1cccc(-c2c(C)n(Cc3c(F)cccc3C(F)(F)F)c(=O)n(C[C@H](NCCCC(=O)O)c3ccccc3)c2=O)c1F [Elagolix Sodium] | 0 | –
COC(=O)N[C@H](C(=O)N1CCC[C@H]1c1nc(-c2ccc3c(c2)O[C@@H](c2ccccc2)n2c-3cc3cc(-c4c[nH]c([C@@H]5CCCN5C(=O)[C@@H](NC(=O)OC)C(C)C)n4)ccc32)c[nH]1)C(C)C [Elbasvir] | 8.16 | –
CN1CCC[C@@H]1Cc1c[nH]c2ccc(CCS(=O)(=O)c3ccccc3)cc12 [Eletriptan HBr] | 0 | –
CCCCCCCC(=O)N[C@H](CN1CCCC1)[C@H](O)c1ccc2c(c1)OCCO2 [Eliglustat] | 2.49 | –
O=c1oc2c(O)c(O)cc3c(=O)oc4c(O)c(O)cc1c4c23 [Ellagic acid] | 33.1 | –
CC1=NN(c2ccc(C)c(C)c2)C(=O)/C1=N\Nc1cccc(-c2cccc(C(=O)O)c2)c1O [Eltrombopag Olamine] | – | 18.42
CC1=NN(c2ccc(C)c(C)c2)C(=O)/C1=N\Nc1cccc(-c2cccc(C(=O)O)c2)c1O [Eltrombopag] | – | 0
COc1ccc(CN(C(=O)[C@@H](N)Cc2c(C)cc(C(N)=O)cc2C)[C@@H](C)c2ncc(-c3ccccc3)[nH]2)cc1C(=O)O [Eluxadoline] | 5.52 | –
COc1cc2c(cc1Cc1cccc(Cl)c1F)c(=O)c(C(=O)O)cn2[C@H](CO)C(C)C [Elvitegravir (GS-9137, JTK-303)] | 0 | –
CCOCCn1c(N2CCCN(C)CC2)nc2ccccc21 [Emedastine Difumarate] | – | 0.198
CCOCCn1c(N2CCCN(C)CC2)nc2ccccc21 [Emedastine] | – | 0
OC[C@H]1O[C@@H](c2ccc(Cl)c(Cc3ccc(O[C@H]4CCOC4)cc3)c2)[C@H](O)[C@@H](O)[C@@H]1O [Empagliflozin (BI 10773)] | 0 | –
C[C@H](NC(=O)C(=O)Nc1ccccc1C(C)(C)C)C(=O)N[C@@H](CC(=O)O)C(=O)COc1c(F)c(F)cc(F)c1F [Emricasan] | 21 | –
Nc1nc(=O)n([C@@H]2CS[C@H](CO)O2)cc1F [Emtricitabine] | 0 | –
CCOC(=O)[C@H](CCc1ccccc1)N[C@@H](C)C(=O)N1CCC[C@H]1C(=O)O [Enalapril Maleate] | 16.8 | –
C[C@H](N[C@@H](CCc1ccccc1)C(=O)O)C(=O)N1CCC[C@H]1C(=O)O [Enalaprilat Dihydrate] | 10.6 | –
CC(C)(O)CNc1nc(Nc2ccnc(C(F)(F)F)c2)nc(-c2cccc(C(F)(F)F)n2)n1 [Enasidenib (AG-221)] | 6.78 | –
COC(=O)N[C@@H](C)CNc1nccc(-c2cn(C(C)C)nc2-c2cc(Cl)cc(NS(C)(=O)=O)c2F)n1 [Encorafenib (LGX818)] | 10.8 | –

Compound | inhibition at 100 µM [%] | %inhibition [%]
CCn1cc(C(=O)O)c(=O)c2cc(F)c(N3CCNCC3)nc21 [Enoxacin Sesquihydrate] | – | 0
CCn1cc(C(=O)O)c(=O)c2cc(F)c(N3CCNCC3)nc21 [Enoxacin] | – | 29.69
CC1(C)[C@@H](O)CC[C@]2(C)[C@H]3C(=O)C=C4[C@@H]5C[C@@](C)(C(=O)O)CC[C@]5(C)CC[C@@]4(C)[C@]3(C)CC[C@@H]12 [Enoxolone] | 0 | –
CCN1CCN(c2cc3c(cc2F)c(=O)c(C(=O)O)cn3C2CC2)CC1 [Enrofloxacin] | 16.9 | –
CCN(CC)C(=O)/C(C#N)=C/c1cc(O)c(O)c([N+](=O)[O-])c1 [Entacapone] | 0 | –
C=C1[C@H](CO)[C@@H](O)C[C@@H]1n1cnc2c(=O)[nH]c(N)nc21 [Entecavir Hydrate] | – | 11.65
C=C1[C@H](CO)[C@@H](O)C[C@@H]1n1cnc2c(=O)[nH]c(N)nc21 [Entecavir] | – | 0
Nc1ccccc1NC(=O)c1ccc(CNC(=O)OCc2cccnc2)cc1 [Entinostat (MS-275)] | 33.3 | –
c1cn2cc(-c3ccc4cn[nH]c4c3)nc(Nc3ccc(N4CCOCC4)cc3)c2n1 [Entospletinib (GS-9973)] | 29.5 | –
CN1CCN(c2ccc(C(=O)Nc3n[nH]c4ccc(Cc5cc(F)cc(F)c5)cc34)c(NC3CCOCC3)c2)CC1 [Entrectinib (RXDX-101)] | 8.59 | –
Cn1cc(C2=C(c3cn(C4CCN(Cc5ccccn5)CC4)c4ccccc34)C(=O)NC2=O)c2ccccc21 [Enzastaurin (LY317615)] | 34.6 | –
NS(=O)(=O)NCCNc1nonc1/C(=N/O)Nc1ccc(F)c(Br)c1 [Epacadostat (INCB024360)] | 14.8 | –
CC(/C=C1\SC(=S)N(CC(=O)O)C1=O)=C\c1ccccc1 [Epalrestat] | 0 | –
CCc1ccc(C(=O)C(C)CN2CCCCC2)cc1 (stereo not drawn) [Eperisone hydrochloride] | 10.4 | –
NC1=NCC2c3ccccc3Cc3ccccc3N12 (stereo not drawn) [Epinastine HCl] | 4.62 | –
CNC[C@H](O)c1ccc(O)c(O)c1 [Epinephrine HCl] | – | 5.697
CNC[C@H](O)c1ccc(O)c(O)c1 [Epinephrine bitartrate] | 10.7 | –
COc1cccc2c1C(=O)c1c(O)c3c(c(O)c1C2=O)C[C@@](O)(C(=O)CO)C[C@@H]3O[C@H]1C[C@H](N)[C@@H](O)[C@H](C)O1 [Epirubicin HCl] | 51.4 | –
COC(=O)[C@@H]1CC2=CC(=O)CC[C@]2(C)[C@@]23O[C@@H]2C[C@@]2(C)[C@@H](CC[C@@]24CCC(=O)O4)[C@H]13 [Eplerenone] | 3.58 | –
CCOC(CN1CCN(CC(C)C(=O)c2ccccc2)CC1)c1ccccc1 (stereo not drawn) [Eprazinone 2HCl] | 0 | –
O=S(=O)(O)CCCS(=O)(=O)O [Eprodisate disodium] | 0 | –
CCCCc1ncc(/C=C(\Cc2cccs2)C(=O)O)n1Cc1ccc(C(=O)O)cc1 [Eprosartan Mesylate] | 26.7 | –

Compound | inhibition at 100 µM [%] | %inhibition [%]
O=C(O)CSCC(=O)NC1CCSC1=O (stereo not drawn) [Erdosteine] | 12.3 | –
C#Cc1cccc(Nc2ncnc3cc(OCCOC)c(OCCOC)cc23)c1 [Erlotinib HCl (OSI-744)] | – | 12.32
C#Cc1cccc(Nc2ncnc3cc(OCCOC)c(OCCOC)cc23)c1 [Erlotinib] | – | 10.85
C[C@@H](O)[C@H]1C(=O)N2C(C(=O)O)=C(S[C@@H]3CN[C@H](C(=O)Nc4cccc(C(=O)O)c4)C3)[C@H](C)[C@H]12 [Ertapenem sodium] | 2.44 | –
CCOc1ccc(Cc2cc([C@]34OC[C@](CO)(O3)[C@@H](O)[C@H](O)[C@H]4O)ccc2Cl)cc1 [Ertugliflozin] | 26.2 | –
CCOC(=O)CCC(=O)O[C@H]1[C@H](O[C@@H]2[C@@H](C)[C@H](O[C@H]3C[C@@](C)(OC)[C@@H](O)[C@H](C)O3)[C@@H](C)C(=O)O[C@H](CC)[C@@](C)(O)[C@H](O)[C@@H](C)C(=O)[C@H](C)C[C@@]2(C)O)O[C@H](C)C[C@@H]1N(C)C [Erythromycin Ethylsuccinate] | 0 | –
CC[C@H]1OC(=O)[C@H](C)[C@@H](O[C@H]2C[C@@](C)(OC)[C@@H](O)[C@H](C)O2)[C@H](C)[C@@H](O[C@@H]2O[C@H](C)C[C@H](N(C)C)[C@H]2O)[C@](C)(O)C[C@@H](C)C(=O)[C@H](C)[C@@H](O)[C@]1(C)O [Erythromycin thiocyanate] | – | 1.029
CC[C@H]1OC(=O)[C@H](C)[C@@H](O[C@H]2C[C@@](C)(OC)[C@@H](O)[C@H](C)O2)[C@H](C)[C@@H](O[C@@H]2O[C@H](C)C[C@H](N(C)C)[C@H]2O)[C@](C)(O)C[C@@H](C)C(=O)[C@H](C)[C@@H](O)[C@]1(C)O [Erythromycin] | – | 0
C/C=C(\C)C(=O)O[C@H]1[C@H](OC(C)=O)[C@@]2(CO)C(CC1(C)C)C1=CCC3[C@@]4(C)CCC(O[C@@H]5O[C@H](C(=O)O)[C@@H](O[C@@H]6O[C@H](CO)[C@@H](O)[C@H](O)[C@H]6O)[C@H](O)[C@H]5O[C@@H]5O[C@H](CO)[C@@H](O)[C@H](O)[C@H]5O)[C@](C)(CO)C4CC[C@@]3(C)[C@]1(C)C[C@H]2O (stereo partly drawn) [Escin] | 6.9 | –
CN(C)CCC[C@@]1(c2ccc(F)cc2)OCc2cc(C#N)ccc21 [Escitalopram Oxalate] | 0 | –
CC(=O)O[C@H]1Cc2ccccc2N(C(N)=O)c2ccccc21 [Eslicarbazepine Acetate] | 0 | –
COC(=O)CCc1ccc(OCC(O)CNC(C)C)cc1 (stereo not drawn) [Esmolol HCl] | 12 | –
COc1ccc2[nH]c([S@@+]([O-])Cc3ncc(C)c(OC)c3C)nc2c1 [Esomeprazole sodium] | – | 0
C[C@]12CC[C@@H]3c4ccc(OC(=O)c5ccccc5)cc4CC[C@H]3[C@@H]1CC[C@@H]2O [Estradiol Benzoate] | 20.5 | –
C[C@]12CC[C@@H]3c4ccc(O)cc4CC[C@H]3[C@@H]1CC[C@@H]2OC(=O)CCC1CCCC1 [Estradiol Cypionate] | 0 | –
CCCCC(=O)O[C@H]1CC[C@H]2[C@@H]3CCc4cc(O)ccc4[C@H]3CC[C@]12C [Estradiol valerate] | 3.33 | –
C[C@]12CC[C@@H]3c4ccc(O)cc4CC[C@H]3[C@@H]1CC[C@@H]2O [Estradiol] | 0 | –
C[C@]12CC[C@@H]3c4ccc(O)cc4CC[C@H]3[C@@H]1C[C@@H](O)[C@@H]2O [Estriol] | 0 | –
C[C@]12CC[C@@H]3c4ccc(O)cc4CC[C@H]3[C@@H]1CCC2=O [Estrone] | 0 | –
C[C@]12CC[C@@H]3c4ccc(OS(=O)(=O)O)cc4CC[C@H]3[C@@H]1CCC2=O [Estropipate] | 8.24 | –
CCOc1ccc2nc3cc(N)ccc3c(N)c2c1 [Ethacridine lactate monohydrate] | 25.8 | –
CC[C@@H](CO)NCCN[C@@H](CC)CO [Ethambutol 2HCl] | 7.53 | –
